# From PubChem BioAssay AID623906 (Vanderbilt Specialized Chemistry Center, 2012)
# Target: Metabotropic glutamate receptor 4 (Rattus norvegicus) (UniProt P31423)
# Experiment: PubChem AID 623906
# Conditions: rat mGlu4 cells, thallium flux, glutamate CRC fold shift, at 10 µM, stronger effect = higher value
# Chain of Metabotropic glutamate receptor 4 (Rattus norvegicus) (P31423 whole entry, looked up): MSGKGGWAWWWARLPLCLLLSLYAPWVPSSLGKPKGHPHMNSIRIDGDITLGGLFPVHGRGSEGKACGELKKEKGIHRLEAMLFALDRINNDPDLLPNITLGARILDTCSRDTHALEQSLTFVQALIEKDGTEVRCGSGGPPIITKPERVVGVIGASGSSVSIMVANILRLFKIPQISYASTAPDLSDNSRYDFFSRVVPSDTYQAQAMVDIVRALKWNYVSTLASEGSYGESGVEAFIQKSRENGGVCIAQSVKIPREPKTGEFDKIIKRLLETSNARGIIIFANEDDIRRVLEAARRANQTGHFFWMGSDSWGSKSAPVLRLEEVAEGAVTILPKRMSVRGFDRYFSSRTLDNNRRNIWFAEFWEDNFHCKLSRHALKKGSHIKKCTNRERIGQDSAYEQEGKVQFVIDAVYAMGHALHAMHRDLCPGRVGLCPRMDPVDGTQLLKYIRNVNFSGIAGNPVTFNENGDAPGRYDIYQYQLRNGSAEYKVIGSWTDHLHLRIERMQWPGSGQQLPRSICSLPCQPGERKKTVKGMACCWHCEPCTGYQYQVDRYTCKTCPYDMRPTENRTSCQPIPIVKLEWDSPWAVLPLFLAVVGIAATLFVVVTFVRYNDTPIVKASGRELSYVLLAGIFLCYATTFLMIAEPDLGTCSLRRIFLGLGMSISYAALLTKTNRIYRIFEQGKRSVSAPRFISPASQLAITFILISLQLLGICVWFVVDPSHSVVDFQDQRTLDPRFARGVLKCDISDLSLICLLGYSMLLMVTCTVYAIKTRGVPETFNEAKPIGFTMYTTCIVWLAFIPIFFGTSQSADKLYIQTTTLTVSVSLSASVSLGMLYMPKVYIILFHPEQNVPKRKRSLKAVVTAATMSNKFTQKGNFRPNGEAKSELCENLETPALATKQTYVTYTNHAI
smiles,measurement,setting,value
O=C(Nc1cccc(Cl)c1)c1ccccn1,fold shift,,16.5
same,glutamate max response,glutamate max with compound,96.9%
